From PMC9220178, “Preclinical Characterization of Antioxidant Quinolyl Nitrone QN23 as a New Candidate for the Treatment of Ischemic Stroke” (Antioxidants, 2022)

Assays:
Assay type in all cases: in vivo, rat
[1] = system: adult male Wistar rats, four-vessel occlusion (4VO) transient forebrain ischemia; experiment: Neurological deficit score (NDS) after global cerebral ischemia (4VO); conditions: 40 mg/kg i.v.; R5d; times tested 0, 1, 3, 6 h
Procedure: Transient forebrain ischemia was induced in adult male Wistar rats (10–12 weeks, Charles River, L’Arbresle, France) by the standard four-vessel occlusion (4VO) model previously described. Briefly, animals were anesthetized by intraperitoneal injection of a combination of ketamine, diazepam, and atropine (62.5, 5.0, and 0.25 mg/kg, respectively); positioned in a stereotactic device; and both vertebral arteries were cauterized. The next day, anesthesia was induced with 4% isoflurane and maintained at 2–2.5% isoflurane for carotid artery dissection. After anesthesia withdrawal, the carotid arteries were occluded with an atraumatic vascular clamp to induce brain ischemia. During the entire surgical procedure, temperature was monitored at 2 min intervals and kept at 37 °C. After 15 min of ischemia, the carotid arteries were unclamped for brain reperfusion. The animals were studied after 5 days of reperfusion (R5d), or after 11 weeks of reperfusion (long-term studies), and then they were euthanized under deep anesthesia. Animals from the sham control group were handled in the same way, but without occlusion of the carotid arteries. Ischemic animals were treated with vehicle solution (ethanol/polyethylene glycol 400/saline, 1:300:200 v/v), or with nitrones QN23 or NXY-059 in vehicle solution, as a single injection through the tail vein at the onset of reperfusion. For the therapeutic window experiments, the animals were also treated at reperfusion times 1, 3, and 6 h after ischemia. The treatments were prepared by an independent researcher and administered with concealed allocation. Treatments were administered in a randomized order obtained by a computer-based randomization program. […]
After 5 days of post-ischemic reperfusion (R5d), neurological deficits were evaluated in the animals by a researcher blind to the treatment allocation. General status and mobility impairments were quantified according to a scale previously validated in an entire cohort of R5d animals (n = 20). […]

[2] = system: adult male Wistar rats, four-vessel occlusion (4VO) transient forebrain ischemia; experiment: Neuronal death by Fluoro-Jade B staining after transient global cerebral ischemia (4VO); conditions: 40 mg/kg i.v. at 0, 1, 3 or 6 h of reperfusion; R5d
Procedure: (§1) Transient forebrain ischemia was induced in adult male Wistar rats (10–12 weeks, Charles River, L’Arbresle, France) by the standard four-vessel occlusion (4VO) model previously described. Briefly, animals were anesthetized by intraperitoneal injection of a combination of ketamine, diazepam, and atropine (62.5, 5.0, and 0.25 mg/kg, respectively); positioned in a stereotactic device; and both vertebral arteries were cauterized. The next day, anesthesia was induced with 4% isoflurane and maintained at 2–2.5% isoflurane for carotid artery dissection. After anesthesia withdrawal, the carotid arteries were occluded with an atraumatic vascular clamp to induce brain ischemia. During the entire surgical procedure, temperature was monitored at 2 min intervals and kept at 37 °C. After 15 min of ischemia, the carotid arteries were unclamped for brain reperfusion. The animals were studied after 5 days of reperfusion (R5d), or after 11 weeks of reperfusion (long-term studies), and then they were euthanized under deep anesthesia. Animals from the sham control group were handled in the same way, but without occlusion of the carotid arteries. Ischemic animals were treated with vehicle solution (ethanol/polyethylene glycol 400/saline, 1:300:200 v/v), or with nitrones QN23 or NXY-059 in vehicle solution, as a single injection through the tail vein at the onset of reperfusion. For the therapeutic window experiments, the animals were also treated at reperfusion times 1, 3, and 6 h after ischemia. The treatments were prepared by an independent researcher and administered with concealed allocation. Treatments were administered in a randomized order obtained by a computer-based randomization program. To determine the sample size, a power analysis (http://www.biomath.info/power/ttest.htm, accessed on 12 March 2020) with significance level set at 0.05 and statistical power set at 0.8 (80%) rendered a sample size of <6 subjects per group. A total of 120 ischemic animals (30 animals treated with vehicle, 60 treated with QN23, and 30 treated with NXY-059) and 9 sham control animals were included in these studies. Additionally, 13 animals were excluded from the study: 6 animals were not ischemic and 7 animals died within the 24 h after the surgical procedure (5 vehicles, 1 QN23-treated at 1.0 mg/kg, and 1 QN23-treated at 2.0 mg/kg). The Animal Care Ethics Committee of the Hospital Universitario Ramón y Cajal (Madrid, Spain) authorized all the procedures involving the animal experimentation reported here (authorization number 04/2020). These experiments were performed according to ARRIVE guidelines and the legislation on the protection of animals used for scientific purposes in Spain (RD 53/2013) and the EU (Directive 2010/63/EU). The study was designed and conducted according to the STAIR guidelines regarding physiological monitoring, sample randomization, predefined exclusion criteria, allocation concealment, blinded assessment of outcomes, dose–response definition, and a conflict-of-interest statement.
(§2) After 5 days of reperfusion (R5d), or at 11 weeks of reperfusion in long-term studies, animals were euthanized by transcardiac perfusion via the left ventricle under deep anesthesia. First, blood was washed out with 200 mL of ice-cold saline medium, followed by fixation with 4% (w/v) paraformaldehyde solution in PBS for brain preservation. Then, the brains were carefully removed from the cranial cavity and placed in 4% (w/v) paraformaldehyde solution in PBS overnight at 4 °C. The next day, the brains were sequentially placed in 10%, 20%, and 30% (w/v) sucrose in PBS until sunken, and finally embedded in Tissue-Tek O.C.T. (Sakura Finetek, Torrance, CA, USA) before freezing at −80 °C. Brain coronal sections containing the hippocampus region were obtained by cryostat sectioning at the level of interaural line +5.7 ± 0.2 mm on Real Capillary Gap microscope slides (Agilent Dako, Santa Clara, CA, USA). […]

[3] = system: adult male Wistar rats, four-vessel occlusion (4VO) transient forebrain ischemia; experiment: Neuronal apoptosis by TUNEL assay after transient global cerebral ischemia (4VO); conditions: 40 mg/kg i.v. at 0, 1, 3 or 6 h of reperfusion; R5d
Procedure: as §1, §2

[4] = system: adult male Wistar rats, four-vessel occlusion (4VO) transient forebrain ischemia; experiment: Long-term behavioral tests in the Y maze; conditions: 40 mg/kg i.v. at reperfusion onset, 11 weeks after ischemia
Procedure: Long-term assessment of neurological damage after the ischemic episode was performed by the evaluation of the spontaneous exploratory activity (spatial recognition) and spatial memory skills in the Y maze.
For the assessment of the exploratory activity and spatial recognition, control animals and ischemic animals treated with vehicle, QN23, or NXY-059 were placed in the center of the maze and allowed free exploration for 8 min. An independent researcher blind to the treatment allocation registered the total number of arms that the animal entered indistinctly (arm entries), and the times that the animal explored the three different arms of the maze consecutively (alternations or triads).
For the assessment of spatial memory, experiments consisted of two trials. For the first trial (training), control and ischemic animals treated with vehicle or QN23 were placed into one of the arms (start arm) and allowed to explore the Y maze for 10 min with one of the arms closed. One hour after the training trial, the animals were returned to the Y maze and the second trial was conducted. The animals were placed in the same start arm as in the training trial, but now with the remaining two arms of the maze available for exploration for 3 min. A researcher blind to the treatment allocation registered the first choice of arm for entry (novel or old).

CC(C)(C)[N+]([O-])=Cc1ccc(S(=O)(=O)[O-])cc1S(=O)(=O)[O-].[Na+].[Na+] [NXY-059, reference compound]
Therapeutic window: administration time after reperfusion onset with significantly reduced NDS [1]: 0 h | Neuronal death compared with vehicle [2]: did not reduce neuronal death | Apoptosis reduction compared with vehicle [3]: did not produce a significant effect | Y maze arm entries (exploratory activity) [4]: fewer arm maze entries | Y maze alternations (triads completed), spatial recognition ([4]; vehicle 5.0, control 15.75): 5.5 | Percentage of animals exploring the novel arm as a first choice (spatial memory) ([4]; vehicle 17%, control 75%): 50%
